Key:
[1] = target: T1, HDAC6 enzyme (Homo sapiens, UniProt Q9UBN7); assay: HDAC6 enzyme inhibitory assay (HDAC-Glo I/II Assay kit); assay type: biochemical; conditions: 1 μM test compound; for inhibition at 1 µM: read-out: HDAC6 inhibitory rate (%) (1 μM)
T1 construct: prepared by transducing full length HDAC1 and HDAC6 genes into Sf-9 insect cells; GST; purchased SignalChem; host or cells: Sf-9 insect cells
T1 sequence (Q9UBN7 1-1215): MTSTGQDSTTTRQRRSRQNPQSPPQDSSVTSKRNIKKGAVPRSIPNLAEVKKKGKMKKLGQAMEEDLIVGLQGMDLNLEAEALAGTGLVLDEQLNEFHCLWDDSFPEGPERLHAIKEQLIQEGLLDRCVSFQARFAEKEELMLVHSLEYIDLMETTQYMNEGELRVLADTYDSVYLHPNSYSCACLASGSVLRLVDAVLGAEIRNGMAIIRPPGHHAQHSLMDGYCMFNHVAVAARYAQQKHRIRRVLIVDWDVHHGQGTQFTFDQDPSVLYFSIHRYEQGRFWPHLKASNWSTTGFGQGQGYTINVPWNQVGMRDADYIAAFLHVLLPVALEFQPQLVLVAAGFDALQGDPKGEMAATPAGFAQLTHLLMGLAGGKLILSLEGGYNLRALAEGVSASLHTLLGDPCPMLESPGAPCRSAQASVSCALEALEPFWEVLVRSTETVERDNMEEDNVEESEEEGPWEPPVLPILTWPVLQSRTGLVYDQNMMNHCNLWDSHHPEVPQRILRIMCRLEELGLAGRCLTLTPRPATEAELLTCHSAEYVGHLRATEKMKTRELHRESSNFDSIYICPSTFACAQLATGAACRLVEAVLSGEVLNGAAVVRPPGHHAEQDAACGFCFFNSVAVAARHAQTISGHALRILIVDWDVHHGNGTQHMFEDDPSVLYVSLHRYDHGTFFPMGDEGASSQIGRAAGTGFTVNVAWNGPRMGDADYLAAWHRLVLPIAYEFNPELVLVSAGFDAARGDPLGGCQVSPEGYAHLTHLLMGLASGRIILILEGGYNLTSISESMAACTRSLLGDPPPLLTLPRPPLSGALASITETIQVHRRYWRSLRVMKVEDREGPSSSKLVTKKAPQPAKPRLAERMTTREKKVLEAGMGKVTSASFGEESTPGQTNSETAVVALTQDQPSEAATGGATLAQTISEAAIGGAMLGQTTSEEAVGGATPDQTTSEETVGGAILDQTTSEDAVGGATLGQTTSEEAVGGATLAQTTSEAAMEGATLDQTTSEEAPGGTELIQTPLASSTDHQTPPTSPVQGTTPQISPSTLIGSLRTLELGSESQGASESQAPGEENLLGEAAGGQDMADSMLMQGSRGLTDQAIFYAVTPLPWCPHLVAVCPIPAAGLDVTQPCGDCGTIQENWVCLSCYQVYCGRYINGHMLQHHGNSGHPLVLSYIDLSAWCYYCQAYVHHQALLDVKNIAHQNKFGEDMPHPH
Method in brief: (§1)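 Sf-9-expressed GST-purified full-length HDAC1/HDAC6; cpd + enzyme 60 min RT, 24 mM Tris-HCl pH 7.5, 135 mM NaCl, 0.6 mM glutathione, 0.01% Tween-20; substrate-developer 20 min RT; luminescence; no-enzyme wells = 100% inhibition.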

[2] = target: T2, HDAC1 enzyme (Homo sapiens, UniProt Q13547); assay: HDAC1 enzyme inhibitory assay (HDAC-Glo I/II Assay kit); assay type: biochemical; conditions: 1 μM test compound; for inhibition at 1 µM: read-out: HDAC1 inhibitory rate (%) (1 μM)
T2 construct: prepared by transducing full length HDAC1 and HDAC6 genes into Sf-9 insect cells; GST; purchased SignalChem; host or cells: Sf-9 insect cells
Method in brief: as §1

T2 sequence (Q13547 whole entry): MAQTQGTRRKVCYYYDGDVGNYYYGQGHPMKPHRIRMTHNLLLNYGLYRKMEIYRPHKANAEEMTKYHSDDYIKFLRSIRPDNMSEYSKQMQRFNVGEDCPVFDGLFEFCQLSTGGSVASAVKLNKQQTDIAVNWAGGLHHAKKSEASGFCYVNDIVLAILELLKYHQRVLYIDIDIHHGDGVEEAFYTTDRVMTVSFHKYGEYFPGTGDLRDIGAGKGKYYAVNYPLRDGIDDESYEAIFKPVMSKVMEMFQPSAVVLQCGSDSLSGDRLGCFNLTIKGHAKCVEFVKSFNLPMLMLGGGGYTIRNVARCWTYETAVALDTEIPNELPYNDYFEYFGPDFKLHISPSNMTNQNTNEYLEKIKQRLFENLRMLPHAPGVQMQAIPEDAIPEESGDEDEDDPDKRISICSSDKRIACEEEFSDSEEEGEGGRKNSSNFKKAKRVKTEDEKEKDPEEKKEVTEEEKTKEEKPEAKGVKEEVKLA

inhibition at 1 µM [1] [%] | inhibition at 1 µM [2] [%] | HDAC6 inhibitory rate (%) (1 μM) [1] | HDAC1 inhibitory rate (%) (1 μM) [2] | SMILES
98 | 40 |  |  | O=C(NCC1COCCN1C(=O)C(F)(F)c1ccccc1)c1ccc(-c2noc(C(F)(F)F)n2)cc1 (stereo in doubt) [Example 96, N-(((3S)-4-(difluoro(phenyl)acetyl)morpholin-3-yl)methyl)-4-(5-(trifluoromethyl)-1,2,4-oxadiazol-3-yl)benzamide]
101 | 21 |  |  | O=C(NCC1COCCN1C(=O)c1ccccc1)c1ccc(-c2noc(C(F)(F)F)n2)cc1 (stereo in doubt) [Example 111, N-(((3R)-4-benzoylmorpholin-3-yl)methyl)-4-(5-(trifluoromethyl)-1,2,4-oxadiazol-3-yl)benzamide]
98 | 22 |  |  | O=C(NCC1COCCN1C(=O)c1ccccc1)c1ccc(-c2noc(C(F)(F)F)n2)cc1 (stereo not shown) [Example 1, N-((4-benzoylmorpholin-3-yl)methyl)-4-(5-(trifluoromethyl)-1,2,4-oxadiazol-3-yl)benzamide]
98 | 7 |  |  | O=C(NCC1COCCN1C(=O)c1ccccn1)c1ccc(-c2noc(C(F)(F)F)n2)cc1 (stereo not shown) [Example 12, N-((4-(pyridin-2-ylcarbonyl)morpholin-3-yl)methyl)-4-(5-(trifluoromethyl)-1,2,4-oxadiazol-3-yl)benzamide]
 |  | 96 | 31 | O=C(NCC1COCCN1C(=O)c1ccccc1)c1ccc(-c2noc(C(F)(F)F)n2)s1 (single isomer, unassigned) [Example 258, (R or S)-N-((4-benzoylmorpholin-3-yl)methyl)-5-(5-(trifluoromethyl)-1,2,4-oxadiazol-3-yl)thiophene-2-carboxamide]
99 | 30 |  |  | CC(C)(C(=O)N1CCOCC1CNC(=O)c1ccc(-c2noc(C(F)(F)F)n2)cc1)c1ccccc1 (stereo in doubt) [Example 95, N-(((3S)-4-(2-methyl-2-phenylpropanoyl)morpholin-3-yl)methyl)-4-(5-(trifluoromethyl)-1,2,4-oxadiazol-3-yl)benzamide]
 |  | 98 | 65 | O=C(NC[C@H]1COCCN1C(=O)c1cccc(F)c1)c1ccc(-c2noc(C(F)(F)F)n2)cc1 [Example 41, N-(((3S)-4-(3-fluorobenzoyl)morpholin-3-yl)methyl)-4-(5-(trifluoromethyl)-1,2,4-oxadiazol-3-yl)benzamide]

Continued, compound first:

SMILES | inhibition at 1 µM [1] [%] | inhibition at 1 µM [2] [%] | HDAC6 inhibitory rate (%) (1 μM) [1] | HDAC1 inhibitory rate (%) (1 μM) [2]
O=C(NC[C@H]1COCCN1C(=O)N1CCCC1CCO)c1ccc(-c2noc(C(F)(F)F)n2)cc1 (stereo partly drawn) [Example 305, N-(((3S)-4-((2-(2-hydroxyethyl)pyrrolidin-1-yl)carbonyl)morpholin-3-yl)methyl)-4-(5-(trifluoromethyl)-1,2,4-oxadiazol-3-yl)benzamide] | 99 | 5 |  | 
Cc1nonc1C(=O)N1CCOC[C@@H]1CNC(=O)c1ccc(-c2noc(C(F)(F)F)n2)cc1 [Example 60, N-(((3S)-4-((4-methyl-1,2,5-oxadiazol-3-yl)carbonyl)morpholin-3-yl)methyl)-4-(5-(trifluoromethyl)-1,2,4-oxadiazol-3-yl)benzamide] | 98 | 27 |  | 
O=C(NCC1COCCN1C(=O)C12CC3CC(CC(C3)C1)C2)c1ccc(-c2noc(C(F)(F)F)n2)cc1 (stereo in doubt) [Example 97, N-(((3S)-4-(adamantan-1-ylcarbonyl)morpholin-3-yl)methyl)-4-(5-(trifluoromethyl)-1,2,4-oxadiazol-3-yl)benzamide] | 96 | 16 |  | 
O=C(NC[C@H]1COCCN1C(=O)N1CCCOC(CO)C1)c1ccc(-c2noc(C(F)(F)F)n2)cc1 (stereo partly drawn) [Example 291, N-(((3S)-4-((2-(hydroxymethyl)-1,4-oxazepan-4-yl)carbonyl)morpholin-3-yl)methyl)-4-(5-(trifluoromethyl)-1,2,4-oxadiazol-3-yl)benzamide] | 90 | 1 |  | 
O=C(NCC1Cc2ccccc2N1C(=O)c1ccccc1)c1ccc(-c2noc(C(F)(F)F)n2)cc1 (stereo not shown) [Example 167, N-((1-benzoyl-2,3-dihydro-1H-indol-2-yl)methyl)-4-(5-(trifluoromethyl)-1,2,4-oxadiazol-3-yl)benzamide] | 93 | 15 |  | 
O=C(NCC1COCCN1C(=O)C(F)(F)c1ccccc1)c1ccc(-c2noc(C(F)(F)F)n2)s1 (stereo not shown) [Example 246, N-((4-(difluoro(phenyl)acetyl)morpholin-3-yl)methyl)-5-(5-(trifluoromethyl)-1,2,4-oxadiazol-3-yl)thiophene-2-carboxamide] | 99 | 52 |  | 
O=C(NCC1COCCN1C(=O)c1ccccc1)c1ccc(-c2noc(C(F)(F)F)n2)s1 (single isomer, unassigned) [Example 257, (R or S)-N-((4-benzoylmorpholin-3-yl)methyl)-5-(5-(trifluoromethyl)-1,2,4-oxadiazol-3-yl)thiophene-2-carboxamide] | 97 | 23 |  | 
O=C(NC[C@@H]1COCCN1C(=O)C1CCCC1)c1ccc(-c2noc(C(F)(F)F)n2)cc1 [Example 149, N-(((3R)-4-(cyclopentylcarbonyl)morpholin-3-yl)methyl)-4-(5-(trifluoromethyl)-1,2,4-oxadiazol-3-yl)benzamide] | 96 | 12 |  | 
O=C(NC[C@H]1COCCN1C(=O)c1ccc(OCC(F)(F)F)nc1)c1ccc(-c2noc(C(F)(F)F)n2)cc1 [Example 51, N-(((3S)-4-((6-(2,2,2-trifluoroethoxy)pyridin-3-yl)carbonyl)morpholin-3-yl)methyl)-4-(5-(trifluoromethyl)-1,2,4-oxadiazol-3-yl)benzamide] | 99 | 15 |  | 
O=C(NC[C@H]1COCCN1C(=O)C1CCCCC1)c1ccc(-c2noc(C(F)(F)F)n2)cn1 [Example 204, N-(((3S)-4-(cyclohexylcarbonyl)morpholin-3-yl)methyl)-5-(5-(trifluoromethyl)-1,2,4-oxadiazol-3-yl)pyridine-2-carboxamide] | 97 | 22 |  | 
Cc1nonc1C(=O)N1CCOC[C@@H]1CNC(=O)c1ccc(-c2noc(C(F)(F)F)n2)s1 [Example 260, N-(((3S)-4-((4-methyl-1,2,5-oxadiazol-3-yl)carbonyl)morpholin-3-yl)methyl)-5-(5-(trifluoromethyl)-1,2,4-oxadiazol-3-yl)thiophene-2-carboxamide] | 98 | 44 |  | 
COC[C@H]1CCCN1C(=O)N1CCOC[C@@H]1CNC(=O)c1ccc(-c2noc(C(F)(F)F)n2)cc1 [Example 272, N-(((3S)-4-(((2R)-2-(methoxymethyl)pyrrolidin-1-yl)carbonyl)morpholin-3-yl)methyl)-4-(5-(trifluoromethyl)-1,2,4-oxadiazol-3-yl)benzamide] | 99 | 5 |  | 
O=C(NCC1COCCN1C(=O)c1cc(Cl)cc(Cl)c1)c1ccc(-c2noc(C(F)(F)F)n2)cc1 (stereo not shown) [Example 30, N-((4-(3,5-dichlorobenzoyl)morpholin-3-yl)methyl)-4-(5-(trifluoromethyl)-1,2,4-oxadiazol-3-yl)benzamide] | 98 | 24 |  | 
